# Experimental data published in the supplement of paper PMC10307832.
# Assays:
# Experiment in all cases: relative viability (nuclei count vs DMSO), 5 days (fraction); higher = more cells survive
# NCI-H2347 = test system: NCI-H2347
# Procedure, shortened: (§1)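 Medians of duplicate plates are given as relative viability. That measure is the nuclei count in treated wells divided by the count in vehicle wells. Counts were taken on 4× images of lung cancer cell lines in 1536-well plates, 5 days after pin-tool dosing the day after seeding with one drug alone or a fixed anchor-drug dose plus five library-drug doses (not always all listed) in √10 steps.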
# NCI-H1734 = test system: NCI-H1734
# Procedure, shortened: as §1
# NCI-H322M = test system: NCI-H322M
# Procedure, shortened: as §1
# ABC-1 = test system: ABC-1
# Procedure, shortened: as §1
# RERF-LC-KJ = test system: RERF-LC-KJ
# Procedure, shortened: as §1
# A-427 = test system: A-427
# Procedure, shortened: as §1
# LC-2-ad = test system: LC-2-ad
# Procedure, shortened: as §1
# SW 1573 = test system: SW 1573
# Procedure, shortened: as §1
# NCI-H1915 = test system: NCI-H1915
# Procedure, shortened: as §1
# NCI-H838 = test system: NCI-H838
# Procedure, shortened: as §1
# NCI-H441 = test system: NCI-H441
# Procedure, shortened: as §1
# HCC-15 = test system: HCC-15
# Procedure, shortened: as §1
# NCI-H2023 = test system: NCI-H2023
# Procedure, shortened: as §1
# UMC-11 = test system: UMC-11
# Procedure, shortened: as §1
# NCI-H647 = test system: NCI-H647
# Procedure, shortened: as §1
# EPLC-272H = test system: EPLC-272H
# Procedure, shortened: as §1
# NCI-H2009 = test system: NCI-H2009
# Procedure, shortened: as §1
structure (smiles),measurement,setting,value
Cc1csc(=NC2CCCCC2)n1/N=C/c1ccc(O)c(O)c1O [MIM1] + CC(C)C[C@H](NC(=O)[C@H](Cc1ccccc1)NC(=O)c1cnccn1)B(O)O [Bortezomib] (partner 0.002 µM),relative viability,NCI-H2347; first compound 0.2 µM,0.944
same,relative viability,NCI-H2347; first compound 0.6325 µM,1.03
same,relative viability,NCI-H2347; first compound 2 µM,0.939
same,relative viability,NCI-H2347; first compound 6.325 µM,0.798
same,relative viability,NCI-H2347; first compound 20 µM,0.578
same,relative viability,NCI-H1734; first compound 0.2 µM,1.12
same,relative viability,NCI-H1734; first compound 0.6325 µM,0.799
same,relative viability,NCI-H1734; first compound 2 µM,0.868
same,relative viability,NCI-H1734; first compound 6.325 µM,0.404
same,relative viability,NCI-H1734; first compound 20 µM,0.159
same,relative viability,NCI-H322M; first compound 0.2 µM,1.21
same,relative viability,NCI-H322M; first compound 0.6325 µM,1.2
same,relative viability,NCI-H322M; first compound 2 µM,1.35
same,relative viability,NCI-H322M; first compound 6.325 µM,1.17
same,relative viability,NCI-H322M; first compound 20 µM,1.08
same,relative viability,ABC-1; first compound 0.2 µM,0.33
same,relative viability,ABC-1; first compound 0.6325 µM,0.299
same,relative viability,ABC-1; first compound 2 µM,0.298
same,relative viability,ABC-1; first compound 6.325 µM,0.309
same,relative viability,ABC-1; first compound 20 µM,0.231
same,relative viability,RERF-LC-KJ; first compound 0.2 µM,1.08
same,relative viability,RERF-LC-KJ; first compound 0.6325 µM,1.29
same,relative viability,RERF-LC-KJ; first compound 2 µM,0.852
same,relative viability,RERF-LC-KJ; first compound 6.325 µM,0.601
same,relative viability,RERF-LC-KJ; first compound 20 µM,0.264
same,relative viability,A-427; first compound 0.2 µM,0.975
same,relative viability,A-427; first compound 0.6325 µM,0.865
same,relative viability,A-427; first compound 2 µM,0.972
same,relative viability,A-427; first compound 6.325 µM,0.847
same,relative viability,A-427; first compound 20 µM,0.234
same,relative viability,LC-2-ad; first compound 0.2 µM,1.06
same,relative viability,LC-2-ad; first compound 0.6325 µM,0.545
same,relative viability,LC-2-ad; first compound 2 µM,0.986
same,relative viability,LC-2-ad; first compound 6.325 µM,0.383
same,relative viability,LC-2-ad; first compound 20 µM,0.201
same,relative viability,SW 1573; first compound 0.2 µM,0.937
same,relative viability,SW 1573; first compound 0.6325 µM,1.05
same,relative viability,SW 1573; first compound 2 µM,0.978
same,relative viability,SW 1573; first compound 6.325 µM,0.811
same,relative viability,SW 1573; first compound 20 µM,0.592
same,relative viability,NCI-H1915; first compound 0.2 µM,0.989
same,relative viability,NCI-H1915; first compound 0.6325 µM,0.857
same,relative viability,NCI-H1915; first compound 2 µM,0.898
same,relative viability,NCI-H1915; first compound 6.325 µM,0.461
same,relative viability,NCI-H1915; first compound 20 µM,0.725
same,relative viability,NCI-H838; first compound 0.2 µM,0.869
same,relative viability,NCI-H838; first compound 0.6325 µM,0.808
same,relative viability,NCI-H838; first compound 2 µM,0.78
same,relative viability,NCI-H838; first compound 6.325 µM,0.53
same,relative viability,NCI-H838; first compound 20 µM,0.136
same,relative viability,NCI-H441; first compound 0.2 µM,0.593
same,relative viability,NCI-H441; first compound 0.6325 µM,0.418
same,relative viability,NCI-H441; first compound 2 µM,0.681
same,relative viability,NCI-H441; first compound 6.325 µM,0.521
same,relative viability,NCI-H441; first compound 20 µM,0.171
same,relative viability,HCC-15; first compound 0.2 µM,1.05
same,relative viability,HCC-15; first compound 0.6325 µM,0.911
same,relative viability,HCC-15; first compound 2 µM,1.06
same,relative viability,HCC-15; first compound 6.325 µM,0.36
same,relative viability,HCC-15; first compound 20 µM,0.267
same,relative viability,NCI-H2023; first compound 0.2 µM,1.11
same,relative viability,NCI-H2023; first compound 0.6325 µM,0.916
same,relative viability,NCI-H2023; first compound 2 µM,0.765
same,relative viability,NCI-H2023; first compound 6.325 µM,0.35
same,relative viability,NCI-H2023; first compound 20 µM,0.0682
same,relative viability,UMC-11; first compound 0.2 µM,0.646
same,relative viability,UMC-11; first compound 0.6325 µM,0.389
same,relative viability,UMC-11; first compound 2 µM,0.774
same,relative viability,UMC-11; first compound 6.325 µM,0.364
same,relative viability,UMC-11; first compound 20 µM,0.145
same,relative viability,NCI-H647; first compound 0.2 µM,1.05
same,relative viability,NCI-H647; first compound 0.6325 µM,0.878
same,relative viability,NCI-H647; first compound 2 µM,0.98
same,relative viability,NCI-H647; first compound 6.325 µM,0.769
same,relative viability,NCI-H647; first compound 20 µM,0.237
same,relative viability,EPLC-272H; first compound 0.2 µM,0.805
same,relative viability,EPLC-272H; first compound 0.6325 µM,0.796
same,relative viability,EPLC-272H; first compound 2 µM,0.588
same,relative viability,EPLC-272H; first compound 6.325 µM,0.732
same,relative viability,EPLC-272H; first compound 20 µM,0.483
same,relative viability,NCI-H2009; first compound 0.2 µM,1.01
same,relative viability,NCI-H2009; first compound 0.6325 µM,0.956
same,relative viability,NCI-H2009; first compound 2 µM,1.02
same,relative viability,NCI-H2009; first compound 6.325 µM,0.529
same,relative viability,NCI-H2009; first compound 20 µM,0.106
